From ChEMBL document CHEMBL4613266, “Discovery and Structure Relationships of Salicylanilide Derivatives as Potent, Non-acidic P2X1 Receptor Antagonists” (J Med Chem, 2020)

Columns and labels:
[1] = target: T1, P2X purinoceptor 1 (Homo sapiens) (UniProt P51575); assay: Antagonist activity at non-desensitizing human P2X1 receptor ( P2X2/P2X1 chimera) expressed in human 1321N1 cells assessed as inhibition of ATP-induced calcium influx at 10 uM pre-incubated for 30 mins before ATP stimulation by FLIPR assay relative to control; type: cell-based
T1 sequence (whole entry): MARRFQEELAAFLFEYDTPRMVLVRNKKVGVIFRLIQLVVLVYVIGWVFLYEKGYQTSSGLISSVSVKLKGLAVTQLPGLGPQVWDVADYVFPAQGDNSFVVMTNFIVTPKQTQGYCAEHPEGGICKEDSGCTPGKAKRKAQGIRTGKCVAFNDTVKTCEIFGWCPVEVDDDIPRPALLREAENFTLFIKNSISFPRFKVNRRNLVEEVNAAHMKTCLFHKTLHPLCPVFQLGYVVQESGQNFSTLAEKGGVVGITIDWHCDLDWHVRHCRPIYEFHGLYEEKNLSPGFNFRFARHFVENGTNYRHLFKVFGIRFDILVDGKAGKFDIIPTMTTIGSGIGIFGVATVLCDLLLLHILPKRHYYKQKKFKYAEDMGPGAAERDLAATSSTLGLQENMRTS

P2X purinoceptor 1 = P2X purinoceptor 1 (Homo sapiens, UniProt P51575); assay: Antagonist activity at non-desensitizing human P2X1 receptor ( P2X2/P2X1 chimera) expressed in human 1321N1 cells assessed as inhibition of ATP-induced calcium influx pre-incubated for 30 mins before ATP stimulation by FLIPR assay relative to control; type: cell-based

Structure (SMILES) | inhibition [1] [%] | IC50 (P2X purinoceptor 1) [µM]
O=C(Nc1cc(C(F)(F)F)cc(C(F)(F)F)c1)c1cccc(O)c1 | 100 | 4.91
Cc1ccc(O)c(C(=O)Nc2cc(C(F)(F)F)cc(C(F)(F)F)c2)c1 | 91 | 0.236
O=C(Nc1cc(C(F)(F)F)cc(C(F)(F)F)c1)c1ccccc1[N+](=O)[O-] | 61 | 8.6
O=C(Nc1ccc2cc[nH]c2c1)c1ccccc1O | 11 | > 10
O=C(Nc1ccc2ncccc2c1)c1ccccc1O | 28 | > 10
O=C(Nc1cc(C(F)(F)F)cc(C(F)(F)F)c1)c1cccc(Cl)c1 | 82 | 139
O=C(CNc1cc(C(F)(F)F)cc(C(F)(F)F)c1)c1cc(Cl)ccc1O | 104 | 1.79
O=C(Nc1cc(C(F)(F)F)cc(C(F)(F)F)c1)c1cccc([N+](=O)[O-])c1O | 112 | 0.869
Cc1cccc(C(=O)Nc2cc(C(F)(F)F)cc(C(F)(F)F)c2)c1O | 102 | 0.655
O=C(Nc1cccnc1)c1ccccc1O | 3 | > 10
O=C(Nc1cc(C(F)(F)F)cc(C(F)(F)F)c1)c1ccccc1CO | 37 | > 10
O=C(Nc1cccc(S(=O)(=O)C(F)(F)F)c1)c1cc(Cl)ccc1O | 83 | 0.335
CC(C)(C)c1cccc(NC(=O)c2cc(Cl)ccc2O)c1 | 100 | 0.567
O=C(Nc1cc([N+](=O)[O-])cc([N+](=O)[O-])c1)c1cc(Cl)ccc1O | 62 | 4.35
O=C(Nc1cccc([N+](=O)[O-])c1)c1cc(Cl)ccc1O | 65 | 0.172
Cc1cc(C)cc(NC(=O)c2cc(Cl)ccc2O)c1 | 64 | 0.323
O=C(Nc1cc(C(F)(F)F)cc(C(F)(F)F)c1)c1cnccc1O | 31 | > 10
Oc1ccc(Cl)cc1CNc1cc(C(F)(F)F)cc(C(F)(F)F)c1 | 122 | 3.82
CN(C(=O)c1cc(Cl)ccc1O)c1cc(C(F)(F)F)cc(C(F)(F)F)c1 | 88 | 4.06
Nc1ccccc1C(=O)Nc1cc(C(F)(F)F)cc(C(F)(F)F)c1 | 67 | 9.93
O=C(Nc1cc(C(F)(F)F)cc(C(F)(F)F)c1)c1ccncc1O | 60 | 5.25

Structure (SMILES) | inhibition [1] [%] | IC50 (P2X purinoceptor 1) [µM]
O=C(Nc1ccc([N+](=O)[O-])cc1)c1cc(Cl)ccc1O | 43 | –
O=C(Nc1cc(C(F)(F)F)cc(C(F)(F)F)c1)c1c(O)cccc1O | 75 | 8
N#Cc1ccc(NC(=O)c2cc(Cl)ccc2O)cc1 | 38 | > 10
O=C(Nc1ccc(F)cc1)c1cc(Cl)ccc1O | 93 | 0.907
O=C(Nc1cc(O)cc(O)c1)c1cc(Cl)ccc1O | 4 | > 10
O=C(Nc1cccc(C(F)(F)F)c1)c1ccccc1O [SALFLUVERINE] | 75 | 1.3
NS(=O)(=O)c1cccc(NC(=O)c2ccccc2O)c1 | 21 | > 10
O=C(Nc1cc(C(F)(F)F)cc(C(F)(F)F)c1)c1cccc(C(F)(F)F)c1 | 63 | 7.18
O=C(Nc1cc(C(F)(F)F)cc(C(F)(F)F)c1)c1ccccc1Cl | 100 | 539
O=C(NCc1cc(C(F)(F)F)cc(C(F)(F)F)c1)c1cc(Cl)ccc1O | 111 | 1.53
CN1CCN(C(=O)Nc2cc(C(F)(F)F)cc(C(F)(F)F)c2)C1=O | 0 | > 10
COc1ccc(O)c(C(=O)Nc2cc(C(F)(F)F)cc(C(F)(F)F)c2)c1 | 91 | 0.755
O=C(Nc1cc(C(F)(F)F)cc(C(F)(F)F)c1)c1cc(O)ccc1O | 109 | 3.41
O=C(Nc1cc(C(F)(F)F)cc(C(F)(F)F)c1)c1cc([N+](=O)[O-])ccc1O | 99 | 2.53
O=C(Nc1cc(Cl)ccc1O)c1cc(C(F)(F)F)cc(C(F)(F)F)c1 | 48 | ≥ 10
O=C(Nc1cc(C(F)(F)F)cc(C(F)(F)F)c1)c1cccnc1O | 9 | > 10
COc1cc(NC(=O)c2cc(Cl)ccc2O)cc(OC)c1 | 80 | 0.915
O=C(Nc1ccccc1C(F)(F)F)c1cc(Cl)ccc1O | 28 | > 10
O=C(Nc1ccc(Cl)cc1)c1cc(Cl)ccc1O | 55 | 0.199
O=C(Nc1cc(C(F)(F)F)cc(C(F)(F)F)c1)c1cc(F)ccc1O | 96 | 1.66
C#Cc1cccc(NC(=O)c2cc(Cl)ccc2O)c1 | 60 | 1.34
